Key:
Rice = assay: Transplanted rice safety evaluation and weed control effect evaluation in rice field; format: in vivo, rice (japonica rice/Indica rice); details: Table 8, dose 60 g a.i./ha
Description: (§1) Transplanted rice safety evaluation and weed control effect evaluation in rice field:
In addition, the rice field soil that loaded into the 1/1,000,000 ha pot was leveled to keep water storage at 3-4 cm depth. The 3 leaf stage rice (japonica rice/Indica rice) was transplanted at 3 cm of transplanting depth the next day. The compound of the present invention was treated by the same way after 5 days of transplantation.
(§2) The fertility condition of echinochloa crusgali, scirpus juncoides, Bidens tripartita, Leptochloa chinensis, Sagittaria trifolia and Monochoria vaginalis 14 days after the treatment of the compound of the invention and the fertility condition of rice 21 days after the treatment of the compound of the invention respectively with the naked eye. Evaluate the weed control effect with 0-5 activity standard level. Many compounds show excellent activity and selectivity.

Digitaria sanguinalis = assay: Weeding effect in post-emergence stage (greenhouse pot spray); format: in vivo
Procedure, shortened: (§3)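 Greenhouse post-emergence test: compounds were sprayed at 500, 250, 125, 60 and 15 g a.i./ha onto plants 2 weeks after sowing, and fresh weight control rates were averaged from three replicates 3 weeks later.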

Setaria viridis = assay: as above; format: in vivo
Procedure, shortened: as §3

Echinochloa crusgalli = assay: as above; format: in vivo
Procedure, shortened: as §3

Sagittaria trifolia = assay: Transplanted rice safety evaluation and weed control effect evaluation in rice field; format: in vivo; details: Table 8, dose 60 g a.i./ha
Source text: as §1
(§4) Rice field soil was loaded into a 1/1,000,000 ha pot. The seeds of echinochloa crusgali, scirpus juncoides, Bidens tripartita, Sagittaria trifolia, Monochoria vaginalis and Leptochloa chinensis were sowed and gently covered with soil, then left to stand still in greenhouse in the state of 0.5-1 cm of water storage. The tuber of Sagittaria trifolia was planted in the next day or 2 days later. It was kept at 3-4 cm of water storage thereafter. The weeds were treated by dripping the WP or SC water diluents prepared according to the common preparation method of the compounds of the present invention with pipette homogeneously to achieve specified effective amount when echinochloa crusgali, scirpus juncoides, Bidens tripartita, Monochoria vaginalis and Leptochloa chinensis reached 0.5 leaf stage and Sagittaria trifolia reached the time point of primary leaf stage.
as §2

Monochoria vaginalis = assay: as above; format: in vivo; details: Table 8, dose 60 g a.i./ha
Source text: as §1, §4, §2

Leptochloa chinensis = assay: as above; format: in vivo; details: Table 8, dose 60 g a.i./ha
Source text: as §1, §4, §2

Echinochloa crusgali = assay: as above; format: in vivo; details: Table 8, dose 60 g a.i./ha
Source text: as §1, §4, §2

Structure (SMILES)	Rice (safety level) (Rice)	Digitaria sanguinahs (activity level) (Digitaria sanguinalis; Table 3, dose 60 g a.i./ha)	Setaria viridis (activity level) (Setaria viridis; Table 3, dose 60 g a.i./ha)	Echinochloa crusgali (activity level) (Echinochloa crusgalli; Table 3, dose 60 g a.i./ha)	Sagittaria trifolia (activity level) (Sagittaria trifolia)	Monochoria vaginalis (activity level) (Monochoria vaginalis)	Leptochloa chinensis (activity level) (Leptochloa chinensis)	Echinochloa crusgali (activity level) (Echinochloa crusgali)	further results
CCCC[S@+]([O-])c1c(C(F)(F)F)ccc(C(=O)Nc2nnc(C)o2)c1F [1-14 (R-configuration)]	0 (Level 0: growth control rate is less than 5%)	5 (Level 5: growth control rate is above 85%)	5 (Level 5: growth control rate is above 85%)	5 (Level 5: growth control rate is above 85%)	5 (Level 5: growth control rate is above 85%)	5 (Level 5: growth control rate is above 85%)	5 (Level 5: growth control rate is above 85%)	5 (Level 5: growth control rate is above 85%)	Digitaria sanguinahs (activity level) (Digitaria sanguinalis; Table 3, dose 7.5 g a.i./ha): 4 (Level 4: growth control rate is greater than or equal to 60% and less than 85%); Digitaria sanguinahs (activity level) (Digitaria sanguinalis; Table 3, dose 15 g a.i./ha): 5 (Level 5: growth control rate is above 85%); Digitaria sanguinahs (activity level) (Digitaria sanguinalis; Table 3, dose 30 g a.i./ha): 5 (Level 5: growth control rate is above 85%); Setaria viridis (activity level) (Setaria viridis; Table 3, dose 7.5 g a.i./ha): 4 (Level 4: growth control rate is greater than or equal to 60% and less than 85%); Setaria viridis (activity level) (Setaria viridis; Table 3, dose 15 g a.i./ha): 4 (Level 4: growth control rate is greater than or equal to 60% and less than 85%); Setaria viridis (activity level) (Setaria viridis; Table 3, dose 30 g a.i./ha): 5 (Level 5: growth control rate is above 85%); Echinochloa crusgali (activity level) (Echinochloa crusgalli; Table 3, dose 7.5 g a.i./ha): 5 (Level 5: growth control rate is above 85%); Echinochloa crusgali (activity level) (Echinochloa crusgalli; Table 3, dose 15 g a.i./ha): 5 (Level 5: growth control rate is above 85%); Echinochloa crusgali (activity level) (Echinochloa crusgalli; Table 3, dose 30 g a.i./ha): 5 (Level 5: growth control rate is above 85%)
Cc1nnc(NC(=O)c2ccc(C(F)(F)F)c([S@@+]([O-])CCCF)c2F)o1 [1-403 (R-configuration)]	0 (Level 0: growth control rate is less than 5%)	5 (Level 5: growth control rate is above 85%)	5 (Level 5: growth control rate is above 85%)	5 (Level 5: growth control rate is above 85%)	5 (Level 5: growth control rate is above 85%)	5 (Level 5: growth control rate is above 85%)	5 (Level 5: growth control rate is above 85%)	5 (Level 5: growth control rate is above 85%)	–
Cc1nnc(NC(=O)c2ccc(C(F)(F)F)c([S@@+]([O-])C3COC3)c2F)o1 [1-82 (R-configuration)]	0 (Level 0: growth control rate is less than 5%)	–	–	–	5 (Level 5: growth control rate is above 85%)	5 (Level 5: growth control rate is above 85%)	5 (Level 5: growth control rate is above 85%)	5 (Level 5: growth control rate is above 85%)	Digitaria sanguinahs (activity level) (Digitaria sanguinalis; Table 3, dose 125 g a.i./ha): 5 (Level 5: growth control rate is above 85%); Setaria viridis (activity level) (Setaria viridis; Table 3, dose 125 g a.i./ha): 5 (Level 5: growth control rate is above 85%); Echinochloa crusgali (activity level) (Echinochloa crusgalli; Table 3, dose 125 g a.i./ha): 5 (Level 5: growth control rate is above 85%)
Cc1nnc(NC(=O)c2ccc(C(F)(F)F)c([S@+]([O-])CCCCl)c2F)o1 [1-414 (R-configuration)]	0 (Level 0: growth control rate is less than 5%)	–	–	–	5 (Level 5: growth control rate is above 85%)	5 (Level 5: growth control rate is above 85%)	5 (Level 5: growth control rate is above 85%)	5 (Level 5: growth control rate is above 85%)	Digitaria sanguinahs (activity level) (Digitaria sanguinalis; Table 3, dose 500 g a.i./ha): 5 (Level 5: growth control rate is above 85%); Setaria viridis (activity level) (Setaria viridis; Table 3, dose 500 g a.i./ha): 5 (Level 5: growth control rate is above 85%); Echinochloa crusgali (activity level) (Echinochloa crusgalli; Table 3, dose 500 g a.i./ha): 5 (Level 5: growth control rate is above 85%)

Reference: US20230041563A1, “N-(1,3,4-OXADIAZOL-2-YL)ARYLCARBOXAMIDES OR SALTS THEREOF, PREPARATION METHODS, HERBICIDAL COMPOSITIONS AND USES THEREOF” (priority 2018, published 2023)
